Data reported in US20210171576A1, “METHODS FOR TREATING CANCER WITH ACYLDEPSIPEPTIDE ANALOGS” (priority 2018, published 2021).
Where a SMILES comes first, the peptide text is derived from it. Bridges are numbered along the chain shown (N, C = ends). [ ]: non-standard residue; d: D form. The star is where a group is joined. Phe(3,5-F2) = N[C@@H](Cc1cc(F)cc(F)c1)C(=O)O; Heptenoyl(2E) = CCCC/C=C/C(=O)*; aThr = C[C@H](O)[C@H](N)C(=O)O; Pip = O=C(O)[C@@H]1CCCCN1

Columns and labels:
[1] = target: T1, human mitochondrial CIpP (HsCIpP) (Homo sapiens, UniProt Q16740); experiment: Screen of ADEP analogs against HsCIpP: relative degradation (RD) index, casein-FITC degradation relative to E. coli CIpAP; format: biochemical; design: key: casein-FITC degradation by HsClpP relative to EcClpAP
T1 construct: made in house; host or cells: E. coli SG1146 (BL21(DE3) ΔclpP::cat)
T1 sequence (Q16740 57-277): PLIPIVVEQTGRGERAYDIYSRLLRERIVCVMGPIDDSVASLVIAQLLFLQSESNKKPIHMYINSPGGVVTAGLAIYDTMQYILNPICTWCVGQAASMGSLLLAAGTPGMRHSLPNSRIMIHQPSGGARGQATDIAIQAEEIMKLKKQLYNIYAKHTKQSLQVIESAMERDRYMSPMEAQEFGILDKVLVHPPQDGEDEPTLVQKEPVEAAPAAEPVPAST
From the text: Structural analogs of acyldepsipeptide (ADEP) (Goodreid et al., 2016) that were previously developed as potential antibiotics against bacterial CIpP were screened and assessed for their ability to activate and dysregulate the protease activity of HsCIpP, by measuring their relative degradation (RD) index. Note that ADEP-28 was also previously reported by Carney et al. (2014). Details of the experimental protocol have been described in Leung et al., 2011. The RD index is defined as follows: […]
Δφ is the change in fluorescence after 6 hr of starting the reaction measured using 485 nm excitation and 535 nm emission, which primarily detects the signal from casein-FITC. E. coli CIpAP was used as a benchmark for maximum CIpP proteolytic activity. The CIpP in the numerator can be from any other organism. RD25 measurements refer to the measurement in the presence of 25 μM compound. All ADEP analogs were first screened at 25 μM, and their RD25 scores were calculated using the above formula and method as described in Leung et al., 2011 (FIG. 1A). Those that achieved RD25≥0.87 were screened a second time at 5 μM, followed by calculation of their RD5 scores. The top analogs with RD5≥0.74 were screened a third time at 1 μM, followed by calculation of their RD1 scores (FIG. 1B).
To identify ADEP analogs that allow HsCIpP to degrade folded proteins independent of HsCIpX+ATP (i.e., that activate or dysregulate HsCIpP), the inventors employed the in vitro screening method that was used for identifying small molecule activators of Escherichia coli CIpP (EcCIpP) (Leung et al., 2011). In this approach, the ability of HsCIpP to degrade FITC-labeled casein (casein-FITC) was measured and compared to the ability of EcCIpAP to degrade casein-FITC. This is quantitatively expressed as relative degradation (RD) index (Leung et al., 2011).

HEK293 T-REx WT cells [2] = experiment: TUNEL assay, fluorescence microscopy; format: cell-based, human; conditions: 10 μM, 72 hours
Procedure: Prior to use, the cover slips were cleaned by treatment with 1 M HCl for 2-3 days, followed by thorough rinsing with distilled water and a second treatment with 95% ethanol for 16-18 hours. The cleaned cover slips were sterilized by autoclaving and dried under UV light. To ensure proper attachment of the cells, the sterilized cover slips were coated with gelatin by application of a 0.2% solution and incubation at 37° C. for at least 2 hours. Excess gelatin solution was then removed, and the cover slips were allowed to dry in a sterile environment for 2-4 hours before use.
WT cells treated with ADEP-41 were seeded at a density of 1×10^5 cells/mL (2 mL per well) to compensate for lack of cell growth and division resulting from the ADEP treatment. […]
Cells were fixed in the presence of 4% formaldehyde at room temperature for 30-45 minutes, followed by membrane permeabilization with 0.1% Triton X-100 (in PBS from Gibco) supplemented with 0.1% sodium citrate at room temperature for 30 minutes. […] Cells were mounted onto standard glass microscope slides with DAPI Fluoromount-G (Southern Biotech) for visual examination using the Eclipse 80i fluorescence microscope (Nikon) equipped with the X-Cite Series 120Q excitation light source (Excelitas Technologies). Both light and fluorescence microscopic images were captured and analyzed using the NIS-Elements Basic Research Software (Nikon).

HEK293 T-REx WT cells [3] = experiment: 3D Structured Illumination Microscopy (3DSIM) of mitochondrial morphology; format: cell-based, human; conditions: 2 μM
Procedure: HEK293 T-REx WT and CLPP^'1/− cells were seeded on coverslips (Electron Microscopy Sciences) pre-coated with poly-D-lysine hydrobromide (Sigma-Aldrich) in a 12-well culture plate (Falcon). Cells were grown for 24 hours to allow adhesion, followed by treatment with 2 μM ADEP-41 or DMSO in the same manner as described in previous sections, for 24 or 72 hours. At these time points, the original media was removed, and cells were incubated for 30 minutes at 37° C., 5% CO2 with 200 nM MitoTracker Red CMXRos (Molecular Probes) in Opti-MEM™ Reduced Serum Medium (Gibco). Cells were then washed once with PBS and fixed with 4% (v/v) paraformaldehyde (Electron Microscopy Sciences) in PBS for 20 minutes at room temperature.
The fixed cells were then washed twice with PBS, permeabilized with 0.2% (v/v) Triton X-100 (BioShop) in PBS for 10 minutes at room temperature and incubated with 2 μg/mL Hoechst 33342 (Molecular Probes) in PBS for 10 minutes at room temperature to counterstain nuclei. Coverslips were then washed three times with PBS+0.05% (v/v) Tween-20 and mounted on microscope glass slides (VWR) using 0.5% (w/v) propyl gallate (Sigma-Aldrich) dissolved in glycerol as the mounting medium.
3DSIM data were collected on the ELYRA PS.1 super resolution microscope (Carl Zeiss Microscopy) using a 63× (1.4 NA) Plan-Apochromatic oil immersion objective (Carl Zeiss Microscopy) and a 1.6× Optovar. […]

HeLa T-REx cells = experiment: Cytotoxicity, SRB staining
Procedure: To assess the cytotoxicity of ADEP analogs, cells were seeded at 1×10^3 or 2×10^3 cells in 50 μL per well on sterile 96-well flat-bottom tissue culture plates (VWR). Growth media without any cells was included as a control. Cells were grown for at least 24 hours to allow proper adherence to the growth surface. Afterwards, ADEP analogs were serially diluted and introduced to the tissue cultures via fresh growth media at 50 μL per well. Inclusion of activators/DMSO brought the final DMSO concentration of the growth media up to a maximum of 0.5% (v:v). […] A total of four independent replicates were prepared for each cell line and for each growth condition used. Cells were grown in the presence of ADEP/DMSO for 72 hours.
To assess cell survival, live adherent cells were fixed with 10% (w:v) trichloroacetic acid (TCA) at 4° C. for 1-2 hours. The tissue culture plates were then rinsed with water to remove dead cells and cell debris and air-dried overnight. […] Absorbance at λ=510 nm (A510) was then measured using the EnSpire 2300 Multilabel Reader. […]
(§1) To determine the IC50 for the ADEP analogs, relative cell viability (RCV) values were calculated by normalizing the A510 readings in ADEP-containing sample to the DMSO-only control. […]

[4] = test system: HEK293 T-REx CLPP^−/− cells; experiment: Cytotoxicity, SRB staining, 72 hours; conditions: CLPP^−/− cells lacking endogenous HsCIpP
Procedure: To assess the cytotoxicity of ADEP analogs, cells were seeded at 1×10^3 or 2×10^3 cells in 50 μL per well on sterile 96-well flat-bottom tissue culture plates (VWR). Growth media without any cells was included as a control. Cells were grown for at least 24 hours to allow proper adherence to the growth surface. Afterwards, ADEP analogs were serially diluted and introduced to the tissue cultures via fresh growth media at 50 μL per well. Inclusion of activators/DMSO brought the final DMSO concentration of the growth media up to a maximum of 0.5% (v:v). […] A total of four independent replicates were prepared for each cell line and for each growth condition used. […]
To assess cell survival, live adherent cells were fixed with 10% (w:v) trichloroacetic acid (TCA) at 4° C. for 1-2 hours. […] Absorbance at λ=510 nm (A510) was then measured using the EnSpire 2300 Multilabel Reader. […]
as §1
Assessment of cytotoxicity of ADEP-14 on human breast cancer cell lines (MDA-MB-231 WT, MDA-MB-231 CLPP-KD, MDA-MB-468, and MCF-7) and HEK cells (HEK293 T-Rex and HEK293 T-REx CLPP) were determined using the methods as described above in Example 1. […] Sulforhodamine B (SRB) staining method was used to quantify cell survival.

SMILES: CCCC/C=C/C(=O)N[C@@H](Cc1cc(F)cc(F)c1)C(=O)N[C@@H]1C(=O)N2CCC[C@H]2C(=O)N2CCCC[C@H]2C(=O)N[C@@H](C)C(=O)N2CCC[C@H]2C(=O)O[C@H]1C [ADEP-41] ({Heptenoyl(2E)}-[Phe(3,5-F2)][aThr]P[Pip]AP; ester 2-C)
- Hs RD1 ([1]; RD value at 1 μM of the ADEP analog): 0.79
- Hs RD5 ([1]; RD value at 5 μM of the ADEP analog): 0.93
- Hs RD25 ([1]; RD value at 25 μM of the ADEP analog, measure of ability to activate HsCIpP): 0.96
- TUNEL-positive cells relative to DMSO-treated WT cells (HEK293 T-REx WT cells [2]): about 20 times
- mitochondrial fragmentation (HEK293 T-REx WT cells [3]; 24 hours): clear signs of mitochondrial fragmentation
- mitochondrial fragmentation (HEK293 T-REx WT cells [3]; 72 hours): very significant
- IC50 compared across cell lines (HeLa T-REx cells): similar
- sensitivity to ADEP-induced cytotoxicity [4]: resistant
